Experimental data published in patent publication US7410975B2, “Small molecule toll-like receptor (TLR) antagonists” (Coley Pharmaceutical Group, Inc., priority 2003, dated 2008).

Each compound was assayed against T1, human TLR9 (hTLR9) (Homo sapiens, UniProt Q9NR96) (assay: Antagonist screen, hTLR9-NFκB-293 cells, 6× NF-κB-luciferase reporter, with EC50 of CpG ODN 2006). Settings: compound at 0.5, 5, 50 μg/ml; EC50 concentration of CpG ODN 2006; 16 h; NF-κB-luciferase.
T1 construct: expressed in transfected cells
T1 sequence (Q9NR96 26-1032): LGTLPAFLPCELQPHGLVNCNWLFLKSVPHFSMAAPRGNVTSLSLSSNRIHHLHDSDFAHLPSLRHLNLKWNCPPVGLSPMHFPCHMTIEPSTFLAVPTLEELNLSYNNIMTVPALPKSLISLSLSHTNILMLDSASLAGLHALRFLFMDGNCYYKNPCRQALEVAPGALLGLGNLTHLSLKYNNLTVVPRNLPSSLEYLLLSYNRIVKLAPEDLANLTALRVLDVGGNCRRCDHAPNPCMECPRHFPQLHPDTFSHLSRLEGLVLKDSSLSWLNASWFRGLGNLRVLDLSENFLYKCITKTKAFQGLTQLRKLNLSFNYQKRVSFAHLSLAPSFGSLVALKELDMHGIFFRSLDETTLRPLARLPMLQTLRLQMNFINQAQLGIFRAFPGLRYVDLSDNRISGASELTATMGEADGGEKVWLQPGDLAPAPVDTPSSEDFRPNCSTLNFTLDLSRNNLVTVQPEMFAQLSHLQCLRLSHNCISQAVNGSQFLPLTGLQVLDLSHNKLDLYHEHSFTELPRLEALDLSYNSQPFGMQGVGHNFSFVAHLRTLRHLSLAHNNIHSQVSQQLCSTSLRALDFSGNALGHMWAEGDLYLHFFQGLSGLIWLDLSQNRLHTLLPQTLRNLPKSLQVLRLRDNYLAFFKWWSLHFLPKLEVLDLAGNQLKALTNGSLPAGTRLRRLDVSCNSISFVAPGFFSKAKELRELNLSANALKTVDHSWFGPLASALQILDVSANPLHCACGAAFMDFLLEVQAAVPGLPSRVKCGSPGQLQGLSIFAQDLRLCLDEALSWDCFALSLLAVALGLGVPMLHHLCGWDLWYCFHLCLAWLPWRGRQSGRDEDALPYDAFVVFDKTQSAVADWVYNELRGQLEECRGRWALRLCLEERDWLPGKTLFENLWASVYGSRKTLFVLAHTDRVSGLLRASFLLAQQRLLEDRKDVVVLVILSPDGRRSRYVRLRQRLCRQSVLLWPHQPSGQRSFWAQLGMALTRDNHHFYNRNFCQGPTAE
Type: cell-based
Procedure, shortened: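 Luciferase fold induction was compared with the ligand-alone baseline, and antagonism was scored by the lowest concentration giving clear down-regulation.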

| Compound | hTLR9 (inhibitory effect, antagonist score) |
| --- | --- |
| CN1CCC(OC(c2ccccc2)c2ccccc2)CC1.Cl [compound 707, Diphenylpyralinehydrochloride] | 12 (compounds for which there was clear down regulation at 5 μg/ml and 50 μg/ml) |
| COc1ccc2[nH]c3c(c2c1)CCN=C3C [compound 621, Methoxy-6-harmalan] | 12 (compounds for which there was clear down regulation at 5 μg/ml and 50 μg/ml) |
| Cc1cccc(C)c1NC(=O)CN1CCN(CCCC(c2ccc(F)cc2)c2ccc(F)cc2)CC1 [compound 381, Lidoflazine] | 11 (compounds for which there was clear down regulation only at 50 μg/ml) |
| CCOC(=O)c1cc([N+](=O)[O-])cc2c1-c1ccc([N+](=O)[O-])cc1C2=C(C#N)C#N [compound 1039] | 11 (compounds for which there was clear down regulation only at 50 μg/ml) |
| CC(=O)Oc1cc(C)c(C2(c3cc(C(C)C)c(OC(C)=O)cc3C)OC(=O)c3ccccc32)cc1C(C)C [compound 1161] | 12 (compounds for which there was clear down regulation at 5 μg/ml and 50 μg/ml) |
| Cc1cccc(CN2CCN(C(c3ccccc3)c3ccc(Cl)cc3)CC2)c1.Cl.Cl (centres unmarked) [compound 457, Meclozinedihydrochioride] | 11 (compounds for which there was clear down regulation only at 50 μg/ml) |
| Cc1cccc(C2(c3cccc(C)c3)OC(=O)c3ccccc32)c1 [compound 1308] | 11 (compounds for which there was clear down regulation only at 50 μg/ml) |
| Cl.Cl.OCCN1CCN(CC/C=C2/c3ccccc3Sc3ccc(C(F)(F)F)cc32)CC1 [compound 340, Flupentixoldihydrochloride cis-(Z)] | 11 (compounds for which there was clear down regulation only at 50 μg/ml) |
| CC1NCCc2c1[nH]c1ccccc21.Cl (racemic) [compound 619, Eleagnine hydrochloride (R,S)] | 12 (compounds for which there was clear down regulation at 5 μg/ml and 50 μg/ml) |
| O=C1c2c(O)cccc2Cc2cccc(O)c21 [compound 43, Anthralin] | 13 (compounds for which there was clear down regulation at 0.5 μg/ml, 5 μg/ml, and 50 μg/ml) |
| Cl.Cl.c1ccc2c3c([nH]c2c1)C1C2CCC(C4CCCNC42)N1CC3 (centres unmarked) [compound 685, Nitrarine dihydorchloride] | 11 (compounds for which there was clear down regulation only at 50 μg/ml) |
| Maprotilinehydrochloride [compound 346] | 11 (compounds for which there was clear down regulation only at 50 μg/ml) |
| CN(CCO)C(=O)c1cccc2c1-c1ccccc1C2=O [compound 890] | — (compounds for which there was no clear down regulation even at 50 μg/ml) |
| CN1CCCCC1CCN1c2ccccc2Sc2ccc([S+](C)[O-])cc21.O=S(=O)(O)c1ccccc1 (centres unmarked) [compound 529, Mesoridazine besylate] | 11 (compounds for which there was clear down regulation only at 50 μg/ml) |
| CC[C@]12CCCN3CCc4c(n(c5ccccc45)[C@](O)(C(=O)OC)C1)[C@@H]32 [compound 636, Epivincamine] | — (compounds for which there was no clear down regulation even at 50 μg/ml) |
| NC(=O)c1cc(N)c2c(c1N)C(=O)c1ccccc1C2=O [compound 1158] | 11 (compounds for which there was clear down regulation only at 50 μg/ml) |
| CN1CCC(=C2c3ccccc3Sc3ccccc32)CC1.O=C(O)/C=C\C(=O)O [compound 294, Pimethixene maleate] | 11 (compounds for which there was clear down regulation only at 50 μg/ml) |
| OCCN1CCN(CCCN2c3ccccc3Sc3ccc(Cl)cc32)CC1 [compound 125, Perphenazine] | 11 (compounds for which there was clear down regulation only at 50 μg/ml) |
| CN1CCN(CCCN2c3ccccc3Sc3ccc(S(=O)(=O)N(C)C)cc32)CC1.CS(=O)(=O)O.CS(=O)(=O)O [compound 149, Thioproperasinedimesylate] | 13 (compounds for which there was clear down regulation at 0.5 μg/ml, 5 μg/ml, and 50 μg/ml) |
| CC(NCCC(c1ccccc1)c1ccccc1)c1ccccc1.Cl (centres unmarked) [compound 270, Fendiline hydrochloride] | — (compounds for which there was no clear down regulation even at 50 μg/ml) |
